Reference: PMC3056882 (Steroids, 2011)
Read-outs that look alike come from different tables or passages of the source.

Assays:
AKR1D1 [1] = biological target: T1, AKR1D1 (Homo sapiens, UniProt P51857); conditions: cited from earlier work
T1 sequence (P51857 1-326): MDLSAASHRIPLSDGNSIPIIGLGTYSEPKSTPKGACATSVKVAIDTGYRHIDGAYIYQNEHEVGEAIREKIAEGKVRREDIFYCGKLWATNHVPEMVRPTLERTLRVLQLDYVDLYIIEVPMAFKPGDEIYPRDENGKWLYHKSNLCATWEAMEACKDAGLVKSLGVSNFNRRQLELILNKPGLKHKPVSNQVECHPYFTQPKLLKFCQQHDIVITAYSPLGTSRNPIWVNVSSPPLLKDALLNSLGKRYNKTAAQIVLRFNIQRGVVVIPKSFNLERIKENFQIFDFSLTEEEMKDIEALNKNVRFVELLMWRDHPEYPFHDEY

AKR1C1 = conditions: read-out: Ki AKR1C1; competitive (C); ref Bauman et al., 2005 [28]; cited from earlier work
AKR1D1 [2] = biological target: T1, AKR1D1; assay: Inhibition of [4-14C]-testosterone reduction, radiometric assay; type: biochemical; conditions: for ability to inhibit the AKR1D1 dependent reduction of testosterone: result in words; for mode of inhibition of AKR1D1: C, competitive inhibition, NC, non-competitive inhibition
AKR1D1 [3] = biological target: T1, AKR1D1; type: biochemical; conditions: for Km / kcat: fluorimetric, pH 6.0, 15 μM NADPH, 37 °C
AKR1D1 [4] = biological target: T1, AKR1D1; assay: Dissociation constant of AKR1D1-NADPH binary complex by fluorescence titration; type: binding
aldose reductase AKR1B1 = conditions: read-out: Kd of NADPH for aldose reductase AKR1B1; cited from earlier work
AKR1C2 = conditions: read-out: Ki AKR1C2; competitive (C); ref Bauman et al., 2005 [28]; cited from earlier work
AKR1C3 = conditions: read-out: Ki AKR1C3; competitive (C); ref Bauman et al., 2005 [28]; cited from earlier work
[5] = substrate: C[C@]12CCC(=O)C=C1CC[C@@H]1[C@@H]2[C@@H](O)C[C@@]2(C)[C@H]1CC[C@]2(O)C(=O)CO; type: biochemical, human; conditions: other: fluorimetric, pH 6.0, 15 μM NADPH, 37 °C
[6] = substrate: C[C@]12CCC(=O)C=C1CC[C@@H]1[C@@H]2[C@@H](O)C[C@]2(C=O)[C@@H](C(=O)CO)CC[C@@H]12; type: biochemical, human; conditions: other: fluorimetric, pH 6.0, 15 μM NADPH, 37 °C
[7] = substrate: C[C@]12CC[C@H]3[C@@H](CCC4=CC(=O)CC[C@@]43C)[C@@H]1CC[C@H]2O; type: biochemical, human; conditions: other: fluorimetric, pH 6.0, 15 μM NADPH, 37 °C
[8] = ref Di Costanzo et al., 2008 [13]
[9] = dissociation constant for substrate from the E-NADP(H) complex, N.D. = not detected
[10] = read-out: Ki (substrate inhibition), dissociation constant for substrate from the E-NADP(H) complex, N.D. = not detected

C[C@]12CC[C@H]3[C@@H](CCC4=CC(=O)CC[C@@]43C)[C@@H]1CC[C@@H]2O [Testosterone]
Ki (AKR1D1 [1]; read-out: Ki (substrate inhibition), ref Di Costanzo et al., 2008 [13]): 14.5 ± 5.8 µM | Km (AKR1D1 [1]; [8]): 2.7 ± 1.2 µM | kcat (AKR1D1 [1]; [8]): 0.14 ± 0.0333 s⁻¹

Cc1cccc(Nc2ccccc2C(=O)O)c1C [Mefenamic acid]
Ki (AKR1C1): 0.8 µM | Ki (AKR1D1 [2]): > 100 µM | ability to inhibit the AKR1D1 dependent reduction of testosterone (AKR1D1 [2]): ineffective

C[C@]12CC[C@H]3[C@@H](CCC4=CC(=O)CC[C@@]43C)[C@@H]1CC[C@H]2O [Epitestosterone]
Ki (AKR1D1 [3]): 10 ± 2.2 µM

CC(=O)[C@H]1CC[C@H]2[C@@H]3CCC4=CC(=O)CC[C@]4(C)[C@H]3CC[C@]12C [progesterone]
Ki (AKR1D1 [3]): < 2 µM | Km (AKR1D1 [3]): < 0.2 µM | kcat (AKR1D1 [3]): > 0.067 s⁻¹

C[C@]12CC[C@H]3[C@@H](CCC4=CC(=O)CC[C@@]43C)[C@@H]1CC[C@@H]2C(=O)CO [11-deoxycorticosterone]
Ki (AKR1D1 [3]): < 2 µM | Km (AKR1D1 [3]): < 0.2 µM | kcat (AKR1D1 [3]): > 0.067 s⁻¹

C[C@]12C[C@H](O)[C@H]3[C@@H](CCC4=CC(=O)CC[C@@]43C)[C@@H]1CC[C@@H]2C(=O)CO [Corticosterone]
Ki (substrate inhibition) (AKR1D1 [3]; [9]): do not exhibit substrate inhibition | Km (AKR1D1 [3]): 2.2 ± 0.5 µM | kcat (AKR1D1 [3]): 0.0317 ± 0.0017 s⁻¹

C[C@]12CCC(=O)C=C1CC[C@@H]1[C@@H]2[C@@H](O)C[C@]2(C=O)[C@@H](C(=O)CO)CC[C@@H]12 [Aldosterone]
Ki (AKR1D1 [3]): 66.5 ± 15.7 µM

NADPH
Kd fold higher than AKR1B1 (AKR1D1 [4]; AKR1D1 vs AKR1B1 (human aldose reductase)): 5 fold | Kd (AKR1D1 [4]; read-out: dissociation constant (Kd) of NADPH for wild-type AKR1D1, fluorescence titration, 10 mM potassium phosphate pH 6.0, 37 °C): 0.043 ± 0.016 µM | Kd (aldose reductase AKR1B1): 0.009 µM

C[C@]12CCC(=O)C=C1CC[C@@H]1[C@@H]2CC[C@]2(C)C(=O)CC[C@@H]12 [Δ^4-Androstene-3,17-dione]
Km (AKR1D1 [3]): 0.9 ± 0.2 µM | kcat (AKR1D1 [3]): 0.1 ± 0.013 s⁻¹ | Ki (AKR1D1 [3]; [10]): 4.3 ± 1.3 µM

O=C(O)c1ccc(C(=O)c2ccccc2)cc1 [4-Benzoylbenzoic acid]
Ki (AKR1C1): 12.5 µM | Ki (AKR1D1 [2]): > 100 µM | ability to inhibit the AKR1D1 dependent reduction of testosterone (AKR1D1 [2]): ineffective | Ki (AKR1C2): 13.3 µM | Ki (AKR1C3): 1.9 µM

C[C@H](CCC(=O)O)[C@H]1CC[C@H]2[C@@H]3[C@@H](O)C[C@@H]4C[C@H](O)CC[C@]4(C)[C@H]3CC[C@]12C [Ursodeoxycholic acid]
Ki (AKR1C1): 4.9 µM | Ki (AKR1D1 [2]): 9.8 µM | mode of inhibition of AKR1D1 (AKR1D1 [2]): non-competitive | Ki (AKR1C2): 0.011 µM | Ki (AKR1C3): 1.3 µM

C[C@H](CCC(=O)O)[C@H]1CC[C@H]2[C@@H]3[C@H](O)C[C@@H]4C[C@H](O)CC[C@]4(C)[C@H]3CC[C@]12C [Chenodeoxycholic acid]
Ki (AKR1C1): 8.3 µM | Ki (AKR1D1 [2]): 3.2 µM | mode of inhibition of AKR1D1 (AKR1D1 [2]): non-competitive | Ki (AKR1C2): 0.017 µM | Ki (AKR1C3): 10 µM

C[C@]12CCC(=O)C=C1CC[C@@H]1[C@@H]2C(=O)C[C@@]2(C)[C@H]1CC[C@]2(O)C(=O)CO [Cortisone]
Km (AKR1D1 [3]): 15.1 ± 0.3 µM | kcat (AKR1D1 [3]): 0.195 ± 0.0017 s⁻¹

CC(C)CCC[C@@H](C)[C@H]1CC[C@H]2[C@@H]3[C@H](O)CC4=CC(=O)CC[C@]4(C)[C@H]3CC[C@]12C [4-Cholesten-7α-ol-3-one]
Km (AKR1D1 [3]): 0.8 ± 0.2 µM | kcat (AKR1D1 [3]): 0.0333 ± 0.0017 s⁻¹

C[C@]12CCC(=O)C=C1CC[C@@H]1[C@@H]2[C@@H](O)C[C@@]2(C)[C@H]1CC[C@]2(O)C(=O)CO [Cortisol]
Ki (substrate inhibition) (AKR1D1 [3]; [9]): do not exhibit substrate inhibition

CC(C)CCC[C@@H](C)[C@H]1CC[C@H]2[C@@H]3CCC4=CC(=O)CC[C@]4(C)[C@H]3CC[C@]12C [Cholestenone]
Km (AKR1D1 [3]): 0.3 ± 0.1 µM | kcat (AKR1D1 [3]): 0.01 ± 0.00067 s⁻¹

C[C@]12CC[C@H]3[C@@H](CCC4=CC(=O)CC[C@@H]43)[C@@H]1CC[C@@H]2O [4-Estren-17β-ol-3-one]
Km (AKR1D1 [3]): 3 ± 0.5 µM | kcat (AKR1D1 [3]): 0.045 ± 0.0033 s⁻¹ | Ki (AKR1D1 [3]; [10]): 18.6 ± 3.4 µM

COc1ccc2c(c1)c(CC(=O)O)c(C)n2C(=O)c1ccc(Cl)cc1 [Indomethacin]
Ki (AKR1D1 [2]): > 100 µM | ability to inhibit the AKR1D1 dependent reduction of testosterone (AKR1D1 [2]): ineffective

C[C@]12CC[C@H]3[C@@H](CCC4=CC(=O)C=C[C@@]43C)[C@@H]1CC[C@@H]2O [1,4-Androstadien-17β-ol-3-one]
Km (AKR1D1 [1]; ref Drury et al., 2009 [14]): 3.2 ± 0.2 µM | kcat (AKR1D1 [1]; ref Drury et al., 2009 [14]): 0.035 ± 0.0017 s⁻¹

B1: AKR1D1 (Homo sapiens) (protein)
chain: T1 sequence (P51857 1-326)
Km [5]: 13.1 ± 1.8 µM | kcat [5]: 0.045 ± 0.00167 s⁻¹ | kcat/Km [5]: 3500 M⁻¹ s⁻¹ | Km [6]: 2.5 ± 0.4 µM | kcat [6]: 0.15 ± 0.01 s⁻¹ | kcat/Km [6]: 61300 M⁻¹ s⁻¹ | Km [7]: 2.9 ± 0.6 µM | kcat [7]: 0.1 ± 0.0117 s⁻¹ | kcat/Km [7]: 34800 M⁻¹ s⁻¹
